The source of these data is publication PMC3442999, “Characterization of purified and Xerogel immobilized Novel Lignin Peroxidase produced from Trametes versicolor IBL-04 using solid state medium of Corncobs” (BMC Biotechnology, 2012).

The experiment relates to T1, LiP (lignin peroxidase) of T. versicolor IBL-04.
T1 construct: native secreted enzyme purified from solid-state culture on corncobs (ammonium sulfate, Sephadex G-100, DEAE-cellulose); monomer, 30 kDa on SDS and native PAGE
The experiment can be described thus: veratryl alcohol oxidation to veratraldehyde at […] nm, Lineweaver-Burk. It counts as biochemical, Trametes versicolor. The following applies: free enzyme; H2O2 co-substrate; incubated 15 min at 25°C in citrate phosphate pH 6.0 before assay; 100-1000 μM substrate.

The structures appear in SMILES notation.

Broadly, the Km is the substrate concentration at which the rate is half of its maximum. For `COc1ccc(CO)cc1OC` [veratryl alcohol], the Km was 70 µM.
